Experimental data reported in patent US20220401329A1, “ARTIFICIAL MELANIN NANOPARTICLES AND PRECURSOR MOLECULES AS HAIR DYES” (Northwestern University, priority 2019, published 2022).
Marks after values point to notes of the source that are not given here.

Experiments:
[1] = system: Agaricus bisporus tyrosinase (EC 1.14.18.1); experiment: Monomer consumption in tyrosinase-mediated oxidation, by RP-HPLC; assay type: biochemical; settings: 84 nM tyrosinase; for monomer consumption (%) after 2 h reaction: 0.5 mg/mL monomer in water
Protocol: The use of chemoenzymatic oxidative polymerization to produce multifunctional hair coatings has two main advantages. First, it is performed at neutral pH, avoiding the need for basic additives such as NH4OH. Second, it allows the use of substrates other than DA, such as phenolamines and amino acids. Mushroom tyrosinase has recently been used to promote polydopamine-based film deposition^40 and nanoparticles formation^41 starting from dopamine as well as natural phenolamines. […] As previously reported,^40 a 6 h reaction time was necessary to obtain effective darkening of the reaction solutions, performed either in water or Dulbecco's phosphate-buffered saline (DPBS) buffer (FIGS. 23A and 29). Across all tested monomers (L-Tyr, TA, DA), color darkening was associated with an initial increase, then decrease in UV-Vis absorption at 310 nm and 475 nm (FIGS. 23B and 30A-30D). A decrease in these signals, deriving from quinone and cyclic amine species respectively,^40 after the 6 h reaction is indicative of successful polymerization and deposition.^40 We next performed these reactions at 35° C. and at neutral pH, optimal reaction parameters for mushroom tyrosinase.^42 This led to a faster process with solutions turning brown/black several minutes after reaction initiation (FIG. 23A). […] This was confirmed by the rapid disappearance of the peak at 310 nm and 480 nm, as monitored by UV-Vis (FIGS. 23B and 30A-30D). […] (FIGS. 23C and 31A-31B and Table 2). At five-fold higher concentration of 420 nM (50 U/mL) we observed almost complete monomer consumption (FIG. 23D). Monitoring Monomer Consumption via RP-HPLC studies. Monomer consumption after a 2 h reaction was determined by RP-HPLC. Reactions were performed either at rt or at 35° C. and using either 84 nM or […] (five fold) tyrosinase.

[2] = Solubility of monomers in water; assay type: physicochemical

| monomer consumption (%) after 2 h reaction ([1]; 35° C.) | monomer consumption (%) after 2 h reaction ([1]; rt) | substrate for mushroom tyrosinase ([1]; 0.5 mg/mL, 2 hours at 35° C. (FIG. 33A)) | solubility [2] | SMILES |
| --- | --- | --- | --- | --- |
| 91% | 65% |  |  | NCCc1ccc(O)c(O)c1 [DA, dopamine] |
| 86% | 55%* |  |  | N[C@@H](Cc1ccc(O)cc1)C(=O)O [L-Tyr, L-tyrosine] |
|  |  | good substrate | ≥ 26 mM | COC(=O)[C@@H](N)Cc1ccc(O)cc1 [L-Tyr-OMe, L-tyrosine methyl ester] |
| 86% | 76% |  |  | NCCc1ccc(O)cc1 [TA, tyramine] |
